Laboratory results reported in US10577336B2, “Morpholine and 1,4-oxazepane amides as somatostatin receptor subtype 4 (SSTR4) agonists” (Boehringer Ingelheim International GmbH, priority 2014, dated 2020).
pEC50: −log10 of the molar value.

Assays:
[1] = Metabolic stability in pooled human liver microsomes (half-life); settings: 37° C., 1 μM test compound
[2] = biological target: human Somatostatin 4 receptor (hSSTR4) (Homo sapiens (Human), UniProt P31391); assay: cAMP assay with human somatostatin 4 receptor (inhibition of forskolin-stimulated cAMP, hSSTR4 expressing H4 cells); type: cell-based; settings: read-out: SSTR4 agonism EC50
Sequence of human Somatostatin 4 receptor (hSSTR4) (P31391 whole entry): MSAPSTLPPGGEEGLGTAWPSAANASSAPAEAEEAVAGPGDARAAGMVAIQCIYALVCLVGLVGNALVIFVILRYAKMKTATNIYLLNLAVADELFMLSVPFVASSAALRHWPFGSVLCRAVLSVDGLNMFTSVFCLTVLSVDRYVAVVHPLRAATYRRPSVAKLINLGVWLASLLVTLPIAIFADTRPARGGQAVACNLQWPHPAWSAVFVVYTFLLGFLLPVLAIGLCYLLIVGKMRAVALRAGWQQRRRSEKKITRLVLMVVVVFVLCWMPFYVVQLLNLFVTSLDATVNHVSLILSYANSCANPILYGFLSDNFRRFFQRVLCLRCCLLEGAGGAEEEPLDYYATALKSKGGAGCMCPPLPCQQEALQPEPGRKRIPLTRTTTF

in vitro = settings: human, microsomes, pH 7.6

Row | Structure (SMILES) | Half-life t1/2 [1] | pEC50 [2] | half-life at 1 μM (in vitro)
1 | Cn1nc(C(C)(C)NC(=O)[C@@H]2CNCCO2)c2cccc(Cl)c21 [Example 79] | 100 min |  | 
2 | Cc1cccn2c(C3(NC(=O)C4CNCCOC4)CC3)ncc12 (stereo not shown) [Example 5] |  | 7.69 | 
3 | Cc1cccc2c(C(C)(C)NC(=O)[C@@H]3CNCCO3)nn(C)c12 [Example 83] | >130 min |  | 
4 | CC(C)(NC(=O)C1CNCCOC1)c1noc2c(Cl)cccc12 (racemic) [Example 72] |  | 7.76 | 
5 | Cn1nc(C(C)(C)NC(=O)C2CNCCOC2)c2cccc(F)c21 (racemic) [Example 76] |  | 8.00 | 
6 | COc1cccn2c(C(C)(C)NC(=O)[C@@H]3CNCCO3)ncc12 [Example 99] |  | 7.36 | 
7 | CC(C)(NC(=O)C1CNCCOC1)c1noc2c(Cl)cccc12 (single isomer, unassigned) [Example 73] |  | 8.08 | > 130 min
8 | Cc1nc(C(C)(C)NC(=O)[C@@H]2CNCCO2)n2cccc(F)c12 [Example 98] |  | 7.07 | 
9 | CC(C)(NC(=O)[C@H]1CNCCO1)c1ccnc2ccccc12 [Example 8] |  | 6.59 | 
